# In patent publication US20190374627A1, “TARGET PEPTIDES FOR CANCER THERAPY AND DIAGNOSTICS” (priority 2016, published 2019):
# Square brackets hold non-standard residues; d marks the D form. Ends that are not written are not given here. Met(O) = CS(=O)CC[C@H](N)C(=O)O; pS = N[C@@H](COP(=O)(O)O)C(=O)O
# Key:
# [1] = system: expanded lymphocyte cultures from deceased donor livers, cirrhotic livers and HCC; experiment: ICS for MHC-I-pP reactivity of liver-derived lymphocyte cultures after phosphopeptide-specific expansion; type: cell-based, human; conditions: for ppCTL response, Deceased Donor Liver Do 2 / ppCTL response, Deceased Donor Liver Do 3 / ppCTL response, Deceased Donor Liver Do 4 / ppCTL response, Deceased Donor Liver Do 6 / ppCTL response, End-stage Liver Cirrhosis IHL 11 / ppCTL response, End-stage Liver Cirrhosis IHL 12 / ppCTL response, End-stage Liver Cirrhosis IHL 13 / ppCTL response, End-stage Liver Cirrhosis IHL 15 / ppCTL response, HCC Distal HCC 1 / ppCTL response, HCC Tumor HCC 1 / ppCTL response, HCC Distal HCC 4 / ppCTL response, HCC Distal HCC 9 / ppCTL response, HCC Tumor HCC 9 / ppCTL response, HCC Distal HCC 12: pP-specifically expanded culture; for ppCTL response, HCC Distal HCC 1: HCC 1 Distal; for ppCTL response, HCC Tumor HCC 1: HCC 1 Tumor; for ppCTL response, HCC Distal HCC 4: HCC 4 Distal; for ppCTL response, HCC Distal HCC 9: HCC 9 Distal; for ppCTL response, HCC Tumor HCC 9: HCC 9 Tumor; for ppCTL response, HCC Distal HCC 12: HCC 12 Distal
# [2] = system: unexpanded lymphocyte cultures (CD8^+ T cells); experiment: ICS for MHC-I-pP reactivity of lymphocyte cultures without expansion (Table 23, No Expansion)
# [3] = system: expanded TIL / IHL cultures; experiment: ICS for MHC-I-pP reactivity of liver-derived lymphocyte cultures after unspecific rapid expansion protocol (REP); type: cell-based, human
# CD8^+ T cells (PBMCs) = experiment: Intracellular cytokine staining (ICS) of PBMCs after 7 days of stimulation with MHC-I-pP (healthy donors, HH patients); type: cell-based, human; conditions: for Reactive CD8^+ T cell population, HH2: HH patient HH2; for Reactive CD8^+ T cell population, HH3: HH patient HH3; for Reactive CD8^+ T cell population, HH6: HH patient HH6; for Reactive CD8^+ T cell population, HH8: HH patient HH8; for Reactive CD8^+ T cell population, HH11: HH patient HH11; for Reactive CD8^+ T cell population, HD1: Healthy donor HD1; for Reactive CD8^+ T cell population, HD4: Healthy donor HD4; for Reactive CD8^+ T cell population, HD5: Healthy donor HD5
# Protocol: From this, CD8^+ T cell responses against newly identified MHC class I-associated phosphopeptides in healthy individuals and patients with chronic liver disease were investigated. Twenty-one of the newly identified HCC-associated HLA-A*0201-restricted phosphopeptides were selected (see Table 17) for further immunological testing in HLA-A*0201 positive patients. MHC-I-pP-specific cytotoxic CD8^+ T cell responses (ppCTL) were assessed using intracellular cytokine staining (ICS) and several cytokines and surface markers were assessed in parallel. After 7 days of stimulation with the respective MHC-I-pP and no other cytokines, CD3- and CD8-expressing T cells were stained for at least two different cytokines (IFN-γ, TNF-α) and when required CD107a expression as a marker for their cytotoxic potential.
# First, peripheral blood mononuclear cells (PBMCs) from healthy donors and patients with hereditary hemochromatosis (HH) were analyzed. HH is a chronic liver disease characterized by excessive intestinal absorption of dietary iron resulting in a pathological deposition of iron in the liver. PBMCs or lymphocytes from liver tissue were extracted and specifically stimulated with (phospho-) peptides for 7 days before intracellular cytokine staining (ICS). Doublets and dead cells, using a fixable viability dye, were excluded. Lymphocytes were gated on CD3^+ and CD8^+ double positive cells and were analysed for expression of IFNγ, TNFα-, and CD107a.
Substance,"Reactive CD8^+ T cells, pP-specific Expansion, Do2 [1]","Reactive CD8^+ T cells, pP-specific Expansion, Do4 [1]","Reactive CD8^+ T cells, pP-specific Expansion, HH6 [1]","ppCTL response, Deceased Donor Liver Do 2 [1]","ppCTL response, Deceased Donor Liver Do 3 [1]","ppCTL response, Deceased Donor Liver Do 4 [1]","ppCTL response, Deceased Donor Liver Do 6 [1]","ppCTL response, End-stage Liver Cirrhosis IHL 11 [1]","ppCTL response, End-stage Liver Cirrhosis IHL 12 [1]","ppCTL response, End-stage Liver Cirrhosis IHL 13 [1]","ppCTL response, End-stage Liver Cirrhosis IHL 15 [1]","ppCTL response, HCC Distal HCC 1 [1]","ppCTL response, HCC Tumor HCC 1 [1]","ppCTL response, HCC Distal HCC 4 [1]","ppCTL response, HCC Distal HCC 9 [1]","ppCTL response, HCC Tumor HCC 9 [1]","ppCTL response, HCC Distal HCC 12 [1]","Reactive CD8^+ T cells, No Expansion, HH6 [2]","Reactive CD8^+ T cells, Non-specific Expansion, Do2 [3]","Reactive CD8^+ T cells, Non-specific Expansion, Do4 [3]",other results
NLVPMVATV (Cytomegalovirus) [reference compound],3 (5-7.5% reactive CD8^-+ T cells),2 (2.5-5.0% reactive CD8^-+ T cells),3 (5-7.5% reactive CD8^-+ T cells),3 (5-7.5% reactive CD8-+ T cells),0 (<0.25% reactive CD8-+ T cells),2 (2.5-5.0% reactive CD8-+ T cells),0 (<0.25% reactive CD8-+ T cells),0 (<0.25% reactive CD8-+ T cells),0 (<0.25% reactive CD8-+ T cells),0 (<0.25% reactive CD8-+ T cells),0 (<0.25% reactive CD8-+ T cells),1 (0.25-2.5% reactive CD8-+ T cells),0 (<0.25% reactive CD8-+ T cells),0 (<0.25% reactive CD8-+ T cells),0 (<0.25% reactive CD8-+ T cells),0 (<0.25% reactive CD8-+ T cells),0 (<0.25% reactive CD8-+ T cells),1 (0.25-2.5% reactive CD8^-+ T cells),0 (<0.25% reactive CD8^-+ T cells),5 (10-20% reactive CD8^-+ T cells),"Reactive CD8^+ T cells, No Expansion, Do4 ([2]; Do4): 2 (2.5-5.0% reactive CD8^-+ T cells); Reactive CD8^+ T cells, Non-specific Expansion, HH6 [3]: 1 (0.25-2.5% reactive CD8^-+ T cells); Reactive CD8^+ T cell population, HH2 (CD8^+ T cells (PBMCs)): 4 (7.5-10% reactive CD8^-+ T cells); Reactive CD8^+ T cell population, HH3 (CD8^+ T cells (PBMCs)): 0 (<0.25% reactive CD8^-+ T cells); Reactive CD8^+ T cell population, HH6 (CD8^+ T cells (PBMCs)): 1 (0.25-2.5% reactive CD8^-+ T cells); Reactive CD8^+ T cell population, HH8 (CD8^+ T cells (PBMCs)): 1 (0.25-2.5% reactive CD8^-+ T cells); Reactive CD8^+ T cell population, HH10 (CD8^+ T cells (PBMCs); HH patient HH10): 3 (5-7.5% reactive CD8^-+ T cells); Reactive CD8^+ T cell population, HH11 (CD8^+ T cells (PBMCs)): 0 (<0.25% reactive CD8^-+ T cells); Reactive CD8^+ T cell population, HD1 (CD8^+ T cells (PBMCs)): 0 (<0.25% reactive CD8^-+ T cells); Reactive CD8^+ T cell population, HD2 (CD8^+ T cells (PBMCs); Healthy donor HD2): 0 (<0.25% reactive CD8^-+ T cells); Reactive CD8^+ T cell population, HD3 (CD8^+ T cells (PBMCs); Healthy donor HD3): 0 (<0.25% reactive CD8^-+ T cells); Reactive CD8^+ T cell population, HD4 (CD8^+ T cells (PBMCs)): 0 (<0.25% reactive CD8^-+ T cells); Reactive CD8^+ T cell population, HD5 (CD8^+ T cells (PBMCs)): 0 (<0.25% reactive CD8^-+ T cells)"
PmVTLsLNL (P[Met(O)]VTL[pS]LNL; listed as Homo sapiens),2 (2.5-5.0% reactive CD8^-+ T cells),1 (0.25-2.5% reactive CD8^-+ T cells),0 (<0.25% reactive CD8^-+ T cells),2 (2.5-5.0% reactive CD8-+ T cells),0 (<0.25% reactive CD8-+ T cells),2 (2.5-5.0% reactive CD8-+ T cells),1 (0.25-2.5% reactive CD8-+ T cells),0 (<0.25% reactive CD8-+ T cells),0 (<0.25% reactive CD8-+ T cells),0 (<0.25% reactive CD8-+ T cells),0 (<0.25% reactive CD8-+ T cells),0 (<0.25% reactive CD8-+ T cells),0 (<0.25% reactive CD8-+ T cells),0 (<0.25% reactive CD8-+ T cells),0 (<0.25% reactive CD8-+ T cells),0 (<0.25% reactive CD8-+ T cells),0 (<0.25% reactive CD8-+ T cells),0 (<0.25% reactive CD8^-+ T cells),0 (<0.25% reactive CD8^-+ T cells),1 (0.25-2.5% reactive CD8^-+ T cells),"Reactive CD8^+ T cells, Non-specific Expansion, HH6 [3]: 0 (<0.25% reactive CD8^-+ T cells); Reactive CD8^+ T cell population, HH2 (CD8^+ T cells (PBMCs)): 0 (<0.25% reactive CD8^-+ T cells); Reactive CD8^+ T cell population, HH3 (CD8^+ T cells (PBMCs)): 0 (<0.25% reactive CD8^-+ T cells); Reactive CD8^+ T cell population, HH6 (CD8^+ T cells (PBMCs)): 0 (<0.25% reactive CD8^-+ T cells); Reactive CD8^+ T cell population, HH8 (CD8^+ T cells (PBMCs)): 0 (<0.25% reactive CD8^-+ T cells); Reactive CD8^+ T cell population, HD1 (CD8^+ T cells (PBMCs)): 0 (<0.25% reactive CD8^-+ T cells); Reactive CD8^+ T cell population, HD4 (CD8^+ T cells (PBMCs)): 0 (<0.25% reactive CD8^-+ T cells); Reactive CD8^+ T cell population, HD5 (CD8^+ T cells (PBMCs)): 0 (<0.25% reactive CD8^-+ T cells)"
"RLAsYLDRV: KRT18 phosphopeptide, HLA-A*0201 (RLA[pS]YLDRV; listed as Homo sapiens)",0 (<0.25% reactive CD8^-+ T cells),0 (<0.25% reactive CD8^-+ T cells),0 (<0.25% reactive CD8^-+ T cells),0 (<0.25% reactive CD8-+ T cells),0 (<0.25% reactive CD8-+ T cells),0 (<0.25% reactive CD8-+ T cells),0 (<0.25% reactive CD8-+ T cells),0 (<0.25% reactive CD8-+ T cells),0 (<0.25% reactive CD8-+ T cells),0 (<0.25% reactive CD8-+ T cells),0 (<0.25% reactive CD8-+ T cells),0 (<0.25% reactive CD8-+ T cells),0 (<0.25% reactive CD8-+ T cells),0 (<0.25% reactive CD8-+ T cells),0 (<0.25% reactive CD8-+ T cells),0 (<0.25% reactive CD8-+ T cells),0 (<0.25% reactive CD8-+ T cells),0 (<0.25% reactive CD8^-+ T cells),0 (<0.25% reactive CD8^-+ T cells),0 (<0.25% reactive CD8^-+ T cells),"Reactive CD8^+ T cells, Non-specific Expansion, HH6 [3]: 1 (0.25-2.5% reactive CD8^-+ T cells); Reactive CD8^+ T cell population, HH2 (CD8^+ T cells (PBMCs)): 3 (5-7.5% reactive CD8^-+ T cells); Reactive CD8^+ T cell population, HH3 (CD8^+ T cells (PBMCs)): 0 (<0.25% reactive CD8^-+ T cells); Reactive CD8^+ T cell population, HH6 (CD8^+ T cells (PBMCs)): 0 (<0.25% reactive CD8^-+ T cells); Reactive CD8^+ T cell population, HH8 (CD8^+ T cells (PBMCs)): 0 (<0.25% reactive CD8^-+ T cells); Reactive CD8^+ T cell population, HD1 (CD8^+ T cells (PBMCs)): 0 (<0.25% reactive CD8^-+ T cells); Reactive CD8^+ T cell population, HD4 (CD8^+ T cells (PBMCs)): 0 (<0.25% reactive CD8^-+ T cells); Reactive CD8^+ T cell population, HD5 (CD8^+ T cells (PBMCs)): 0 (<0.25% reactive CD8^-+ T cells)"
"RLSsPLHFV: FAM134A phosphopeptide, HLA-A*0201 (RLS[pS]PLHFV; listed as Homo sapiens)",0 (<0.25% reactive CD8^-+ T cells),0 (<0.25% reactive CD8^-+ T cells),0 (<0.25% reactive CD8^-+ T cells),0 (<0.25% reactive CD8-+ T cells),0 (<0.25% reactive CD8-+ T cells),0 (<0.25% reactive CD8-+ T cells),0 (<0.25% reactive CD8-+ T cells),0 (<0.25% reactive CD8-+ T cells),0 (<0.25% reactive CD8-+ T cells),0 (<0.25% reactive CD8-+ T cells),0 (<0.25% reactive CD8-+ T cells),0 (<0.25% reactive CD8-+ T cells),0 (<0.25% reactive CD8-+ T cells),0 (<0.25% reactive CD8-+ T cells),0 (<0.25% reactive CD8-+ T cells),0 (<0.25% reactive CD8-+ T cells),0 (<0.25% reactive CD8-+ T cells),0 (<0.25% reactive CD8^-+ T cells),0 (<0.25% reactive CD8^-+ T cells),0 (<0.25% reactive CD8^-+ T cells),"Reactive CD8^+ T cells, Non-specific Expansion, HH6 [3]: 0 (<0.25% reactive CD8^-+ T cells); Reactive CD8^+ T cell population, HH2 (CD8^+ T cells (PBMCs)): 1 (0.25-2.5% reactive CD8^-+ T cells); Reactive CD8^+ T cell population, HH3 (CD8^+ T cells (PBMCs)): 0 (<0.25% reactive CD8^-+ T cells); Reactive CD8^+ T cell population, HH6 (CD8^+ T cells (PBMCs)): 0 (<0.25% reactive CD8^-+ T cells); Reactive CD8^+ T cell population, HH8 (CD8^+ T cells (PBMCs)): 0 (<0.25% reactive CD8^-+ T cells); Reactive CD8^+ T cell population, HH11 (CD8^+ T cells (PBMCs)): 0 (<0.25% reactive CD8^-+ T cells); Reactive CD8^+ T cell population, HD1 (CD8^+ T cells (PBMCs)): 0 (<0.25% reactive CD8^-+ T cells); Reactive CD8^+ T cell population, HD4 (CD8^+ T cells (PBMCs)): 0 (<0.25% reactive CD8^-+ T cells); Reactive CD8^+ T cell population, HD5 (CD8^+ T cells (PBMCs)): 0 (<0.25% reactive CD8^-+ T cells)"
